Reference: PubChem BioAssay (NCI)
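Method: 48-hour compound exposure of cells in 96-well plates, five concentrations, linear interpolation of endpoints. GI50 = concentration required for 50% inhibition of growth. The concentration for full growth arrest is given as TGI.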

Columns and labels:
Assay in all cases: NCI anticancer screen, dose series, 48 h
ACHN renal = system: ACHN renal
BT-549 breast = system: BT-549 breast
DU-145 prostate = system: DU-145 prostate
HCT-116 colon = system: HCT-116 colon
HOP-62 NSCLC = system: HOP-62 NSCLC
HT29 colon = system: HT29 colon
LOX IMVI melanoma = system: LOX IMVI melanoma
M14 melanoma = system: M14 melanoma
MALME-3M melanoma = system: MALME-3M melanoma
SF-268 CNS = system: SF-268 CNS

Compound	TGI (ACHN renal) [µM]	TGI (BT-549 breast) [µM]	TGI (DU-145 prostate) [µM]	TGI (HCT-116 colon) [µM]	TGI (HOP-62 NSCLC) [µM]	TGI (HT29 colon) [µM]	TGI (LOX IMVI melanoma) [µM]	TGI (M14 melanoma) [µM]	TGI (MALME-3M melanoma) [µM]	TGI (SF-268 CNS) [µM]	GI50 (ACHN renal) [µM]	GI50 (BT-549 breast) [µM]	GI50 (DU-145 prostate) [µM]	GI50 (HCT-116 colon) [nM]	GI50 (HOP-62 NSCLC) [µM]	GI50 (HT29 colon) [nM]	GI50 (LOX IMVI melanoma) [nM]	GI50 (M14 melanoma) [nM]	GI50 (MALME-3M melanoma) [µM]	GI50 (SF-268 CNS) [µM]
Cc1c(NC(=O)CSC(=S)N2CCN(Cc3ccccc3)CC2)c(=O)n(-c2ccccc2)n1C	> 100	> 100	> 100	> 100	> 100	> 100	> 100	> 100	> 100	> 100										
Cc1ccc2c(c1C)C(=O)/C(=C/c1ccccc1C(=O)O)C2	> 100	> 100	> 100	> 100	> 100	> 100	> 100	> 100	> 100	> 100										
O=C(OCCN=c1c2ccccc2ccc2ccccc12)c1ccc([N+](=O)[O-])cc1	> 100	> 100	> 100	> 100	> 100	> 100	> 100	> 100	> 100	> 100										
S=C1SCN(Cc2ccco2)CN1c1ccc(Br)cc1	64.2	44	> 100	42.2	51.9	39.5	13	29	35.3	40.7										
N#Cc1c(-c2ccc(Cl)cc2)c2c(n(C3OC(CO)C(O)C(O)C3O)c1=S)CCC2 (stereo not given)	> 100	65	> 100	98.4	57	> 100	34.3	47.2	51.8	84.7										
CC1(C)[C@H]2CC[C@]1(C)[C@H](OC(=O)NNC(=O)O[C@@H]1C[C@@H]3CC[C@@]1(C)C3(C)C)C2	36.7	42.9	32.7	34.5	29.5	20.9	> 100	35.6	33.8	33.1										
CC1=NN(c2nc(N)nc(/C(C#N)=C/c3cccn3-c3cc(Cl)cc(Cl)c3)n2)C(C)(C)C1	> 100	> 100	> 100	> 100	67.3	> 100	> 100	> 100	> 100	> 100										
CCOC(=O)c1c(N2CCCC2)ncn(Cc2ccccc2)c1=S	> 100	> 100	> 100	> 100	> 100	> 100	> 100	> 100	> 100	> 100										
CC(=O)c1c(C(F)(F)F)n([O-])c2cc(Cl)c(Cl)cc2[n+]1=O	1.92	0.8	3.37	1.61	0.887	2.54	0.489	2.61	2.47	2.53										
O=C1/C(=N\S(=O)(=O)c2ccccc2)C([n+]2ccc(Cc3ccccc3)cc2)=C([O-])c2ccccc21	4.33	2.72	2.89	2.46	3.27	1.49	1.83	2.68	1.73	3.9										
CC1(O)CC(=O)c2c(cc3ccc(-c4c5c(c(O)c6c(O)cccc46)C(=O)CC(C)(O)C5)c(O)c3c2O)C1 (stereo not given)	11	6.75	3.43	3.86	1.55	3.96	5.41	7.11	1.61	1.81										
Cc1c2c(n(CCc3ccc(Cl)cc3)c1C)NC(c1ccccc1)C(C#N)S2(=O)=O (stereo not given)	> 100	> 100	> 100	> 100	> 100	> 65.9	> 75	> 100	> 80.2	> 100										
Cc1cc(N2CCCC2)nc(N(CCNc2ccnc3cc(Cl)ccc23)Cc2ccco2)n1	> 100	> 100	> 100	> 100	30	> 100	10.4	> 100	80.7	> 100	6.53	5.74	6.72	1910	5.64	1680	2660	2930	4.13	11.7
CC(=O)Nc1ccc(OC2=CCN(C)CC2)cc1	> 100	> 100	> 100	> 100	> 100	> 100	> 100	> 100	> 100	> 100										
CC(=O)Oc1c2oc3ccc(Cl)cc3c(=O)c2c(O)c2ccsc12	> 100	> 100	> 100	> 100	> 100	> 100	> 100	> 100	> 100	> 100										
C#CCSC(C=C=C)P(=O)(OC(C)C)OC(C)C (stereo not given)	> 100	82.8	> 100	62.8	> 100	94.5	> 100	> 100	> 100	> 100										
O=C(O)c1nc(-c2ccccc2)[nH]c1C(=O)O	30.7	35.9	28.2	16	32.6	20.2	9.47	25.2	30.6	34.8										
